Results as given in patent publication US20230218631A1 (priority 2020, published 2023).

Assays:
Assay type in all cases: in vivo
wild-type mice = assay: Dependence (CIE)-induced and forced swim stress+dependence escalated ethanol drinking under systemic UNC0642; conditions: chronic 4 mg/kg UNC0642 for 15 days
Procedure: Systemic G9A inhibitor administration and dependence-potentiated and stress+dependence-potentiated drinking. […] Mice were then divided into 4 even groups. Mice were exposed to Air/No stress, Air/FSS, CIE/No Stress, or CIE/stress in a 2×2 design to assess the effects of UNC0642 on dependence drinking alone and dependence+stress. Chronic injections of either vehicle or 4 mg/kg UNC0642 were started during the “test 4” phase in FIG. 6A and continued for 15 days. Ethanol consumed was recorded daily.
Since systemic delivery of UNC0642 blocked stress-regulated ethanol drinking in mice, we tested whether systemic delivery of UNC0642 could block dependence-induced escalation of ethanol drinking also. […] Mice were then divided into 4 evenly matched groups. Mice were exposed to Air/No stress, Air/FSS, CIE/No Stress, or CIE/stress to assess the effects of UNC0642 on ethanol drinking influenced by alcohol dependence alone or stress+dependence. Chronic injections of either vehicle or 4 mg/kg UNC0642 were started during the “test 4” phase illustrated in FIG. 6A and continued for 15 days.

[1] = test system: wild-type mice (both male and female); assay: Elevated plus maze (anxiety-like behavior)
Procedure: These same mice were tested on a 5-minute elevated plus maze protocol at 1-3 days after their final drinking session. 30-60 minutes following an i.p. injection of either 0, 1, 2, or 4 mg/kg UNC0642, mice were allowed to freely explore the open and closed arms of the elevated plus maze. Less anxious mice typically explore the open arms more quickly and spend more time exploring the open arms. […] No statistically significant effects were observed on the time spent in the open arms, as UNC0642 had no effect on open arms time in the elevated plus maze (see FIG. 7D; One-Way ANOVA, F3,42=0.7372, p=0.5359, 1 outlier removed from the 1 mg/kg group with a Grubbs test) or on the number of entries into the open arms, meaning that UNC0642 had no effect on the number of open arm entries in the elevated plus maze (FIG. 7E; One-Way ANOVA, F3,42=1.396, p=0.2573, 1 outlier removed from the 0 mg/kg group with a Grubbs test). […] Thus, in some embodiments, it can be particularly useful for treating individuals with co-morbid psychiatric diseases and/or disorders and AUD/SUD.

[2] = test system: wild-type mice (both male and female); assay: Drinking in the Dark binge-like ethanol drinking; conditions: 2 mg/kg i.p. for 10 days, 30 min before session, 20% ethanol, both sexes
Procedure: Since UNC0642 blocked stress-potentiated ethanol drinking in mice, as show above, we next tested whether UNC0642 could alter binge-like ethanol drinking in both sexes. Wild-type mice (both male and female) were given ethanol for 1 week in a “Drinking in the Dark” paradigm (Rhodes et al., 2005), a well-established alcohol model that is similar to binge-drinking in humans. Both male and female mice were given a single bottle of 20% ethanol in their home cage for 2 hours per day for 3 days. No alternative bottle of water was given in this experiment. On the 4th day, the access to the bottle was extended to 4 hours to model a binge-drinking session. After the first week, mice were split into even groups and were injected with UNC0642 (2 mg/kg, i.p.) or vehicle for 10 days 30 minutes before each drinking session began. Mice were tested for changes in baseline drinking and binge drinking for 2 weeks. […] Our data detected the well-documented sex differences in alcohol intake in these assays, but there was no significant interaction between sex and UNC0642 treatment.

COc1cc2c(NC3CCN(C(C)C)CC3)nc(N3CCC(F)(F)CC3)nc2cc1OCCCN1CCCC1 [UNC0642, 2-(4,4-Difluoropiperidin-1-yl)-6-methoxy-N-[1-(propan-2-yl)piperidin-4-yl]-7-[3-(pyrrolidin-1-yl)propoxy]quinazolin-4-amine]
dependence-induced ethanol drinking during test 5 week (wild-type mice; CIE vs Air, no stress, FIG. 6B left panel): significant reduction | stress+dependence ethanol drinking, test 5 (wild-type mice; forced swim stress plus CIE, FIG. 6B right panel): also suppressed | time spent in the open arms of the elevated plus maze ([1]; 1, 2, 4 mg/kg i.p., FIG. 7D): no effect | number of open arm entries in the elevated plus maze ([1]; 1, 2, 4 mg/kg i.p., FIG. 7E): no effect | latency to explore the open arms of the elevated plus maze ([1]; all 3 doses (1, 2, 4 mg/kg i.p.), 30-60 min after injection, 5-minute test, both sexes, FIG. 7C): reduced the latency | single-bottle alcohol drinking, baseline 2 hour sessions ([2]; FIG. 8A): no effect | binge alcohol drinking, 4-hour binge sessions ([2]; FIG. 8B): no effect
